Assay results published in patent US11807647B2, “Crystal form of hepatitis B surface antigen inhibitor and application thereof” (FUJIAN AKEYLINK BIOTECHNOLOGY CO., LTD., priority 2019, dated 2023).

What was measured:
[1] = test system: HBV-DNA; assay: In vitro HBV activity test, HBV-DNA by quantitative PCR in HepG2.2.15 cells; format: cell-based, Hepatitis B Virus
Experimental: (§1) 1. Cell Lines: HepG2.2.15 Cells
(§2) 2. Reagents: • Pancreatin (Invitrogen-25300062) • DPBS (Corning-21031CVR) • Dimethyl sulfoxide (Sigma-D2650-100 ML) • High-throughput DNA purification kit (QIAamp 96 DNA Blood Kit, Qiagen-51162) • Quantitative faststart universal probe reagent (FastStart Universal Probe Master, Roche-04914058001) • Hepatitis B surface antigen quantitative detection kit (Autobio, CL 0310) • 3. Consumables and Instruments • 96-well cell culture plate (Corning-3599) • CO2 incubator (HERA-CELL-240) • Optical sealing film (ABI-4311971) • Quantitative PCR 96-well plate (Applied Biosystems-4306737) • Fluorescence quantitative PCR instrument (Applied Biosystems-7500 real time PCR system)
(§3) 1. HepG2.2.15 cells (4×10^4 cells/well) were seeded to a 96-well plate and incubated overnight at 37° C., 5% CO2.
2. On day 2, the compound was diluted to a total of 8 concentrations, with a 3-fold gradient dilution. The compounds at different concentrations were added to culture wells in duplicate. The final concentration of dimethyl sulfoxide in the culture medium was 0.5%. 10 μM ETV was used as 100% inhibition control; 0.5% dimethyl sulfoxide was used as a 0% inhibition control.
3. On day 5, the culture medium was replaced with a fresh culture medium containing the compound.
4. […]

[2] = test system: hepatitis B surface antigen (HBsAg); assay: In vitro HBV activity test, hepatitis B virus S antigen by ELISA in HepG2.2.15 cells; format: cell-based
Experimental: as §1, §2, §3
2. […]
6.3 Determination of the content of hepatitis B virus S antigen by ELISA involve respectively adding 50 μl of samples and standards to a reaction plate, and then adding 50 μL of enzyme conjugate to each well; shaking same to mix uniformly, and incubating at 37° C. for 60 minutes; washing the plate 5 times with a washing solution, adding 50 μL of luminescent substrate to each well, mixing uniformly, and reacting same in the dark at room temperature for 10 minutes; and finally, detecting chemiluminescence intensity with a microplate reader. […]

[3] = test system: hepatitis B; details: woodchuck model, used as a single drug; cited from earlier work
[4] = Physical stability test of crystal form A as a solid under various temperature, humidity and light conditions; format: physicochemical
Experimental: 4 samples of crystal form A of the compound of formula (I) were weighed in parallel (about 100 mg each), placed on the bottom of glass sample bottles, and spread out as a thin layer. The bottles were sealed with aluminum foil paper, and some small holes were made on the aluminum foil paper to ensure that the samples could fully contact with ambient air. The prepared 4 samples were placed under a relative humidity of 25° C./92.5%, 60° C., 40° C./75% and light conditions, respectively, to investigate the physical stability of the samples on day 10. In addition, about 100 mg of crystal form A solid of the compound of formula (I) was separately weighed, placed at the bottom of a glass sample bottle, sealed with a screw cap and stored at −20° C. for use as a control sample. On day 10, all samples were taken out, returned to room temperature, and observed for appearance changes, and the crystal forms of the samples were detected by XRPD. By comparing an accelerated sample with the control sample, the physical stability of crystal form A of the compound of formula (I), as a solid, was determined.

[5] = Stability test of crystal form A as a solid under high temperature and high humidity conditions; format: physicochemical; details: 40° C./75% humidity
Experimental: 2 samples of crystal form A of the compound of formula (I) were weighed in parallel (about 100 mg each), placed on the bottom of glass sample bottles, and spread out as a thin layer. The bottles were sealed with aluminum foil paper, and some small holes were made on the aluminum foil paper to ensure that the samples could fully contact with ambient air. The bottles were placed in a constant temperature and humidity chamber at 40° C./75% humidity. The samples placed under the above-mentioned conditions were sampled and tested on day 5 and day 10. The test results were compared with initial test results on day 0.

[6] = 25° C./92.5% relative humidity (open), Day 10
[7] = 40° C./75% relative humidity (open), Day 10
[8] = Day 0 (−20° C. storage with seal) (control sample), time point Day 10

COCCCOc1cc2c(cc1Cl)-c1cc(=O)c(C(=O)O)cn1[C@H](c1cccs1)O2 [Compound of formula (I)]
inhibition of HBV-DNA (experimental conclusion) [1]: effectively inhibit
EC50 ([1]; Hepatitis B virus, 192 h, culture medium collected on day 8): 1.13 nM
inhibition of hepatitis B surface antigen (HBsAg) (experimental conclusion) ([2]; HepG2.2.15 cells): effectively inhibit
EC50 ([2]; Hepatitis B virus, HepG2.2.15, 192 h, read-out: HBsAg EC50): 1.54 nM

COCCCOc1cc2c(cc1OC)-c1cc(=O)c(C(=O)O)cn1[C@H](C(C)C)C2 [RG7834]
reduction of HBV-DNA [3]: 1.7 Log
reduction of surface antigens [3]: 2.57 Log

COCCCOc1cc2c(cc1Cl)-c1cc(=O)c(C(=O)O)cn1[C@H](c1cccs1)O2 [crystal form A]
Character [4, 6]: White powder
Polymorph [4, 6]: Polymorph A
Purity [4, 6]: 99.80%
Character [4, 7]: White powder
Polymorph [4, 7]: Polymorph A
Purity [4, 7]: 99.79%
Character ([4]; 60° C. (open), Day 10): White powder
Polymorph ([4]; 60° C. (open), Day 10): Polymorph A
Purity ([4]; 60° C. (open), Day 10): 99.75%
Character [4, 8]: White powder
Polymorph [4, 8]: Polymorph A
Purity [4, 8]: 99.79%
Character ([4]; Light, Day 10): White powder
Polymorph ([4]; Light, Day 10): Polymorph A
Purity ([4]; Light, Day 10): 99.71%
stability (experimental conclusion) ([4]; solid, various temperature, humidity and light conditions, day 10): good stability
Appearance ([5]; day 0 (initial)): White powder
Polymorph ([5]; day 0 (initial)): Polymorph A
Purity ([5]; day 0 (initial)): 99.79%
Total impurities ([5]; day 0 (initial)): 0.21%
Appearance ([5]; day 5): White powder
Polymorph ([5]; day 5): Polymorph A
Purity ([5]; day 5): 99.79%
Total impurities ([5]; day 5): 0.21%
Appearance ([5]; day 10): White powder
Polymorph ([5]; day 10): Polymorph A
Purity ([5]; day 10): 99.79%
Total impurities ([5]; day 10): 0.21%
stability (experimental conclusion) ([5]; solid, up to day 10): good stability
